Assay results: paper PMC11704008 (Scientific Reports, 2025)
In brackets after ≈: the same amount, converted by molar mass. Like-named read-outs stand apart in the source and are kept apart here.

Assays:
[1] = type: physicochemical
[2] = type: physicochemical; remark: listed apart in the source

C[C@](N)(Cc1ccc(O)c(O)c1)C(=O)O [methyldopa, Methyldopa]
y × 10^5 (mole fraction in ScCO2) ([1]; 313 K, 12 MPa, CO2 density 719.2 kg.m^−3): 2.481 | y × 10^5 (mole fraction in ScCO2) ([1]; 313 K, 15 MPa, CO2 density 781.2 kg.m^−3): 3.013 | y × 10^5 (mole fraction in ScCO2) ([1]; 313 K, 18 MPa, CO2 density 820.7 kg.m^−3): 3.942 | y × 10^5 (mole fraction in ScCO2) ([1]; 313 K, 21 MPa, CO2 density 850.4 kg.m^−3): 4.531 | y × 10^5 (mole fraction in ScCO2) ([1]; 313 K, 24 MPa, CO2 density 873.9 kg.m^−3): 5.520 | y × 10^5 (mole fraction in ScCO2) ([1]; 313 K, 27 MPa, CO2 density 893.5 kg.m^−3): 6.320 | y × 10^5 (mole fraction in ScCO2) ([1]; 313 K, 30 MPa, CO2 density 910.3 kg.m^−3): 7.652 | y × 10^5 (mole fraction in ScCO2) ([1]; 323 K, 12 MPa, CO2 density 587.2 kg.m^−3): 1.880 | y × 10^5 (mole fraction in ScCO2) ([1]; 323 K, 15 MPa, CO2 density 701.1 kg.m^−3): 3.390 | y × 10^5 (mole fraction in ScCO2) ([1]; 323 K, 18 MPa, CO2 density 758.8 kg.m^−3): 4.490 | y × 10^5 (mole fraction in ScCO2) ([1]; 323 K, 21 MPa, CO2 density 797.4 kg.m^−3): 5.910 | y × 10^5 (mole fraction in ScCO2) ([1]; 323 K, 24 MPa, CO2 density 826.1 kg.m^−3): 7.114 | y × 10^5 (mole fraction in ScCO2) ([1]; 323 K, 27 MPa, CO2 density 851.7 kg.m^−3): 7.790 | y × 10^5 (mole fraction in ScCO2) ([1]; 323 K, 30 MPa, CO2 density 871.5 kg.m^−3): 8.832 | y × 10^5 (mole fraction in ScCO2) ([1]; 333 K, 12 MPa, CO2 density 435.3 kg.m^−3): 1.520 | y × 10^5 (mole fraction in ScCO2) ([1]; 333 K, 15 MPa, CO2 density 606.8 kg.m^−3): 2.841 | y × 10^5 (mole fraction in ScCO2) ([1]; 333 K, 18 MPa, CO2 density 688.4 kg.m^−3): 5.090 | y × 10^5 (mole fraction in ScCO2) ([1]; 333 K, 21 MPa, CO2 density 740.3 kg.m^−3): 7.050 | y × 10^5 (mole fraction in ScCO2) ([1]; 333 K, 24 MPa, CO2 density 777.5 kg.m^−3): 8.125 | y × 10^5 (mole fraction in ScCO2) ([1]; 333 K, 27 MPa, CO2 density 806.7 kg.m^−3): 9.163 | y × 10^5 (mole fraction in ScCO2) ([1]; 333 K, 30 MPa, CO2 density 830.5 kg.m^−3): 9.960 | y × 10^5 (mole fraction in ScCO2) ([1]; 343 K, 12 MPa, CO2 density 346.1 kg.m^−3): 0.805 | y × 10^5 (mole fraction in ScCO2) ([1]; 343 K, 15 MPa, CO2 density 507.5 kg.m^−3): 2.043 | y × 10^5 (mole fraction in ScCO2) ([1]; 343 K, 18 MPa, CO2 density 613.5 kg.m^−3): 5.410 | y × 10^5 (mole fraction in ScCO2) ([1]; 343 K, 21 MPa, CO2 density 678.9 kg.m^−3): 7.484 | y × 10^5 (mole fraction in ScCO2) ([1]; 343 K, 24 MPa, CO2 density 724.9 kg.m^−3): 8.632 | y × 10^5 (mole fraction in ScCO2) ([1]; 343 K, 27 MPa, CO2 density 760.3 kg.m^−3): 10.061 | y × 10^5 (mole fraction in ScCO2) ([1]; 343 K, 30 MPa, CO2 density 788.9 kg.m^−3): 11.345 | solubility at 5 h ([1]; solubility S in ScCO2, range over all conditions, 12–30 MPa, 313–343 K): 13.4 to 428 µg/mL (≈ 63.4 to 2030 µM) | solvation heat (ΔHsol) ([2]; difference between ΔHvap and ΔHtotal): -5.382 kcal/mol | total heat (∆Htotal), Chrastil model ([2]; methyldopa in ScCO2): 8.21 kcal/mol | vaporization heat (∆Hvap), Bartle et al. model ([2]; methyldopa in ScCO2): 13.59 kcal/mol
